Measured values reported in PMC7345083, “Vancomycin-Lipopeptide Conjugates with High Antimicrobial Activity on Vancomycin-Resistant Enterococci” (Pharmaceuticals, 2020).
≈ marks a conversion by molar mass, not a printed value.

How the values were obtained:
[1] = test system: Enterococcus casseliflavus ATCC 700327 (vanC); assay type: cell-based; conditions: ATCC 700327, 18 h
Experimental: (§1) The minimum inhibitory concentration (MIC) was determined by microdilution following the EUCAST and CLSI guidelines via the broth microdilution assay on a 96-well plate. Substances were dissolved in saline solution (0.9%) at a concentration equimolar to 1.28 mg/mL vancomycin. With an increasing hydrophobicity, some substances had to be pre-dissolved in DMSO. The final concentration of DMSO remained below 1.5% and was compared to the DMSO control (no antimicrobial effect was observed up to the highest concentration tested (10%)). All substances were serially diluted on the 96-well plate using Mueller-Hinton-Broth II (cation adjusted). Vancomycin was always used as a control. For bacterial loading, an overnight culture of the referring strain was taken and adjusted to a turbidity corresponding to 10^8 cfu/mL. The bacterial suspension was further diluted to load a bacterial number of 10^6 cfu/mL on the 96-well plate and incubate it for 18 h at 35 ± 1 °C, as described before. MIC was defined as the lowest concentration without visible growth.

[2] = test system: Enterococcus faecium UL602570 (vanA, clinical isolate); assay type: cell-based; conditions: UL602570 (vanA, clinical isolate, 18 h)
Experimental: as §1

[3] = test system: E. faecium ATCC 51559 (vanA); assay type: cell-based, Enterococcus faecium; conditions: ATCC 51559, 18 h
Experimental: as §1

[4] = test system: E. faecalis ATCC 51299 (vanB); assay type: cell-based, Enterococcus faecalis; conditions: ATCC 51299, 18 h
Experimental: as §1

SMILES | MIC median [2] | MIC range [2] | other results
CCCCCCCCCCCC(=O)N[C@@H](CCCNC(=N)N)C(=O)N[C@@H](CCCNC(=N)N)C(=O)N[C@@H](CCCNC(=N)N)C(=O)N[C@@H](CSC1CC(=O)N(CC2CCC(C(=O)NCCNC(=O)[C@H]3NC(=O)[C@H]4NC(=O)[C@H](NC(=O)[C@@H]5NC(=O)[C@H](CC(N)=O)NC(=O)[C@H](NC(=O)[C@@H](CC(C)C)NC)[C@H](O)c6ccc(c(Cl)c6)Oc6cc5cc(c6O[C@@H]5O[C@H](CO)[C@@H](O)[C@H](O)[C@H]5O[C@H]5C[C@](C)(N)[C@H](O)[C@H](C)O5)Oc5ccc(cc5Cl)[C@H]4O)c4ccc(O)c(c4)-c4c(O)cc(O)cc43)CC2)C1=O)C(N)=O (stereo partly shown) [VC-R3C-C12] | 4.84 µg/mL (≈ 1.95 µM) | 2.42 to 4.84 µg/mL | MIC median [1]: 4 µg/mL (≈ 1.61 µM); MIC range [1]: 1 to 4 µg/mL; MIC median [3]: 4.84 µg/mL (≈ 1.95 µM); MIC range [3]: 4.84 to 9.69 µg/mL; MIC median [4]: 4 µg/mL (≈ 1.61 µM)
CCCCCCCCCCCCCC(=O)N[C@@H](CCCNC(=N)N)C(=O)N[C@@H](CCCNC(=N)N)C(=O)N[C@@H](CCCNC(=N)N)C(=O)N[C@@H](CSC1CC(=O)N(CC2CCC(C(=O)N(C)[C@H](CC(C)C)C(=O)N[C@H]3C(=O)N[C@@H](CC(N)=O)C(=O)N[C@H]4C(=O)N[C@H]5C(=O)N[C@H](C(=O)N[C@H](C(=O)O)c6cc(O)cc(O)c6-c6cc5ccc6O)[C@H](O)c5ccc(c(Cl)c5)Oc5cc4cc(c5O[C@@H]4O[C@H](CO)[C@@H](O)[C@H](O)[C@H]4O[C@H]4C[C@](C)(N)[C@H](O)[C@H](C)O4)Oc4ccc(cc4Cl)[C@H]3O)CC2)C1=O)C(N)=O (stereo partly shown) [VN-R3C-C14] | 2.41 µg/mL (≈ 0.977 µM) | 2.41 to 4.81 µg/mL | 
CCCCCCCCCCCCCCCC(=O)N[C@@H](CCCNC(=N)N)C(=O)N[C@@H](CCCNC(=N)N)C(=O)N[C@@H](CCCNC(=N)N)C(=O)N[C@@H](CSC1CC(=O)N(CC2CCC(C(=O)N(C)[C@H](CC(C)C)C(=O)N[C@H]3C(=O)N[C@@H](CC(N)=O)C(=O)N[C@H]4C(=O)N[C@H]5C(=O)N[C@H](C(=O)N[C@H](C(=O)O)c6cc(O)cc(O)c6-c6cc5ccc6O)[C@H](O)c5ccc(c(Cl)c5)Oc5cc4cc(c5O[C@@H]4O[C@H](CO)[C@@H](O)[C@H](O)[C@H]4O[C@H]4C[C@](C)(N)[C@H](O)[C@H](C)O4)Oc4ccc(cc4Cl)[C@H]3O)CC2)C1=O)C(N)=O (stereo partly shown) [VN-R3C-C16] | 2.45 µg/mL (≈ 0.982 µM) | 2.45 to 4.89 µg/mL | 
CCCCCCCCCCCCCCCCCC(=O)N[C@@H](CCCNC(=N)N)C(=O)N[C@@H](CCCNC(=N)N)C(=O)N[C@@H](CCCNC(=N)N)C(=O)N[C@@H](CSC1CC(=O)N(CC2CCC(C(=O)N(C)[C@H](CC(C)C)C(=O)N[C@H]3C(=O)N[C@@H](CC(N)=O)C(=O)N[C@H]4C(=O)N[C@H]5C(=O)N[C@H](C(=O)N[C@H](C(=O)O)c6cc(O)cc(O)c6-c6cc5ccc6O)[C@H](O)c5ccc(c(Cl)c5)Oc5cc4cc(c5O[C@@H]4O[C@H](CO)[C@@H](O)[C@H](O)[C@H]4O[C@H]4C[C@](C)(N)[C@H](O)[C@H](C)O4)Oc4ccc(cc4Cl)[C@H]3O)CC2)C1=O)C(N)=O (stereo partly shown) [VN-R3C-C18] | 4.97 µg/mL (≈ 1.97 µM) | 2.48 to 4.97 µg/mL | 
CC(C)C[C@H](C(=O)N[C@H]1C(=O)N[C@@H](CC(N)=O)C(=O)N[C@H]2C(=O)N[C@H]3C(=O)N[C@H](C(=O)N[C@H](C(=O)O)c4cc(O)cc(O)c4-c4cc3ccc4O)[C@H](O)c3ccc(c(Cl)c3)Oc3cc2cc(c3O[C@@H]2O[C@H](CO)[C@@H](O)[C@H](O)[C@H]2O[C@H]2C[C@](C)(N)[C@H](O)[C@H](C)O2)Oc2ccc(cc2Cl)[C@H]1O)N(C)C(=O)C1CCC(CN2C(=O)CC(SC[C@H](NC(=O)[C@H](CCCNC(=N)N)NC(=O)[C@H](CCCNC(=N)N)NC(=O)[C@@H](N)CCCNC(=N)N)C(N)=O)C2=O)CC1 (stereo partly shown) [VN-R3C] | 67.75 µg/mL (≈ 30 µM) | 32.00 to 67.75 µg/mL | 
CCCCCC(=O)N[C@@H](CCCNC(=N)N)C(=O)N[C@@H](CCCNC(=N)N)C(=O)N[C@@H](CCCNC(=N)N)C(=O)N[C@@H](CSC1CC(=O)N(CC2CCC(C(=O)NCCN[C@@]3(C)C[C@H](O[C@H]4[C@H](Oc5c6cc7cc5Oc5ccc(cc5Cl)[C@@H](O)[C@@H](NC(=O)[C@@H](CC(C)C)NC)C(=O)N[C@@H](CC(N)=O)C(=O)N[C@H]7C(=O)N[C@H]5C(=O)N[C@H](C(=O)N[C@H](C(=O)O)c7cc(O)cc(O)c7-c7cc5ccc7O)[C@H](O)c5ccc(c(Cl)c5)O6)O[C@H](CO)[C@@H](O)[C@@H]4O)O[C@@H](C)[C@H]3O)CC2)C1=O)C(N)=O (stereo partly shown) [VV-R3C-C6] | 4.63 µg/mL (≈ 1.93 µM) | 2.31 to 9.25 µg/mL | 
CCCCCCCC(=O)N[C@@H](CCCNC(=N)N)C(=O)N[C@@H](CCCNC(=N)N)C(=O)N[C@@H](CCCNC(=N)N)C(=O)N[C@@H](CSC1CC(=O)N(CC2CCC(C(=O)NCCN[C@@]3(C)C[C@H](O[C@H]4[C@H](Oc5c6cc7cc5Oc5ccc(cc5Cl)[C@@H](O)[C@@H](NC(=O)[C@@H](CC(C)C)NC)C(=O)N[C@@H](CC(N)=O)C(=O)N[C@H]7C(=O)N[C@H]5C(=O)N[C@H](C(=O)N[C@H](C(=O)O)c7cc(O)cc(O)c7-c7cc5ccc7O)[C@H](O)c5ccc(c(Cl)c5)O6)O[C@H](CO)[C@@H](O)[C@@H]4O)O[C@@H](C)[C@H]3O)CC2)C1=O)C(N)=O (stereo partly shown) [VV-R3C-C8] | 1.49 µg/mL (≈ 0.614 µM) | 0.30 to 2.39 µg/mL | 
CCCCCCCCCC(=O)N[C@@H](CCCNC(=N)N)C(=O)N[C@@H](CCCNC(=N)N)C(=O)N[C@@H](CCCNC(=N)N)C(=O)N[C@@H](CSC1CC(=O)N(CC2CCC(C(=O)NCCN[C@@]3(C)C[C@H](O[C@H]4[C@H](Oc5c6cc7cc5Oc5ccc(cc5Cl)[C@@H](O)[C@@H](NC(=O)[C@@H](CC(C)C)NC)C(=O)N[C@@H](CC(N)=O)C(=O)N[C@H]7C(=O)N[C@H]5C(=O)N[C@H](C(=O)N[C@H](C(=O)O)c7cc(O)cc(O)c7-c7cc5ccc7O)[C@H](O)c5ccc(c(Cl)c5)O6)O[C@H](CO)[C@@H](O)[C@@H]4O)O[C@@H](C)[C@H]3O)CC2)C1=O)C(N)=O (stereo partly shown) [VV-R3C-C10] | 0.63 µg/mL (≈ 0.257 µM) | 0.05 to 0.84 µg/mL | 
CCCCCCCCCCCCCC(=O)N[C@@H](CCCNC(=N)N)C(=O)N[C@@H](CCCNC(=N)N)C(=O)N[C@@H](CCCNC(=N)N)C(=O)N[C@@H](CSC1CC(=O)N(CC2CCC(C(=O)NCCN[C@@]3(C)C[C@H](O[C@H]4[C@H](Oc5c6cc7cc5Oc5ccc(cc5Cl)[C@@H](O)[C@@H](NC(=O)[C@@H](CC(C)C)NC)C(=O)N[C@@H](CC(N)=O)C(=O)N[C@H]7C(=O)N[C@H]5C(=O)N[C@H](C(=O)N[C@H](C(=O)O)c7cc(O)cc(O)c7-c7cc5ccc7O)[C@H](O)c5ccc(c(Cl)c5)O6)O[C@H](CO)[C@@H](O)[C@@H]4O)O[C@@H](C)[C@H]3O)CC2)C1=O)C(N)=O (stereo partly shown) [VV-R3C-C14] | 0.46 µg/mL (≈ 0.183 µM) | 0.31 to 0.62 µg/mL | 
CCCCCCCCCCCCCCCC(=O)N[C@@H](CCCNC(=N)N)C(=O)N[C@@H](CCCNC(=N)N)C(=O)N[C@@H](CCCNC(=N)N)C(=O)N[C@@H](CSC1CC(=O)N(CC2CCC(C(=O)NCCN[C@@]3(C)C[C@H](O[C@H]4[C@H](Oc5c6cc7cc5Oc5ccc(cc5Cl)[C@@H](O)[C@@H](NC(=O)[C@@H](CC(C)C)NC)C(=O)N[C@@H](CC(N)=O)C(=O)N[C@H]7C(=O)N[C@H]5C(=O)N[C@H](C(=O)N[C@H](C(=O)O)c7cc(O)cc(O)c7-c7cc5ccc7O)[C@H](O)c5ccc(c(Cl)c5)O6)O[C@H](CO)[C@@H](O)[C@@H]4O)O[C@@H](C)[C@H]3O)CC2)C1=O)C(N)=O (stereo partly shown) [VV-R3C-C16] | 2.50 µg/mL (≈ 0.985 µM) | 2.50 to 3.50 µg/mL | 
CCCCCCCCCCCCCCCCCC(=O)N[C@@H](CCCNC(=N)N)C(=O)N[C@@H](CCCNC(=N)N)C(=O)N[C@@H](CCCNC(=N)N)C(=O)N[C@@H](CSC1CC(=O)N(CC2CCC(C(=O)NCCN[C@@]3(C)C[C@H](O[C@H]4[C@H](Oc5c6cc7cc5Oc5ccc(cc5Cl)[C@@H](O)[C@@H](NC(=O)[C@@H](CC(C)C)NC)C(=O)N[C@@H](CC(N)=O)C(=O)N[C@H]7C(=O)N[C@H]5C(=O)N[C@H](C(=O)N[C@H](C(=O)O)c7cc(O)cc(O)c7-c7cc5ccc7O)[C@H](O)c5ccc(c(Cl)c5)O6)O[C@H](CO)[C@@H](O)[C@@H]4O)O[C@@H](C)[C@H]3O)CC2)C1=O)C(N)=O (stereo partly shown) [VV-R3C-C18] | 2.54 µg/mL (≈ 0.99 µM) | 1.27 to 2.54 µg/mL | 
CN[C@H](CC(C)C)C(=O)N[C@H]1C(=O)N[C@@H](CC(N)=O)C(=O)N[C@H]2C(=O)N[C@H]3C(=O)N[C@H](C(=O)N[C@H](C(=O)O)c4cc(O)cc(O)c4-c4cc3ccc4O)[C@H](O)c3ccc(c(Cl)c3)Oc3cc2cc(c3O[C@@H]2O[C@H](CO)[C@@H](O)[C@H](O)[C@H]2O[C@H]2C[C@](C)(NCCNC(=O)C3CCC(CN4C(=O)CC(SC[C@H](NC(=O)[C@H](CCCNC(=N)N)NC(=O)[C@H](CCCNC(=N)N)NC(=O)[C@@H](N)CCCNC(=N)N)C(N)=O)C4=O)CC3)[C@H](O)[C@H](C)O2)Oc2ccc(cc2Cl)[C@H]1O (stereo partly shown) [VV-R3C] | 4.35 µg/mL (≈ 1.89 µM) | 4.35 to 8.69 µg/mL | 
CCCCCCCCCCCC(=O)N[C@@H](CCCNC(=N)N)C(=O)N[C@@H](CCCNC(=N)N)C(=O)N[C@@H](CCCNC(=N)N)C(=O)N[C@H](Cc1ccc(O)cc1)C(=O)N[C@@H](CSC1CC(=O)N(CC2CCC(C(=O)NCCN[C@@]3(C)C[C@H](O[C@H]4[C@H](Oc5c6cc7cc5Oc5ccc(cc5Cl)[C@@H](O)[C@@H](NC(=O)[C@@H](CC(C)C)NC)C(=O)N[C@@H](CC(N)=O)C(=O)N[C@H]7C(=O)N[C@H]5C(=O)N[C@H](C(=O)N[C@H](C(=O)O)c7cc(O)cc(O)c7-c7cc5ccc7O)[C@H](O)c5ccc(c(Cl)c5)O6)O[C@H](CO)[C@@H](O)[C@@H]4O)O[C@@H](C)[C@H]3O)CC2)C1=O)C(N)=O (stereo partly shown) [VV-R3yC-C12] | 1.02 µg/mL (≈ 0.386 µM) | 0.25 to 2.03 µg/mL | 
